Source: ChEMBL document CHEMBL1201862, “PubChem BioAssay data set” (2004)
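Tested at 5 concentrations; 48 h exposure; 96-well plates; endpoints linearly interpolated, else capped at highest concentration. Here, GI50 denotes the concentration required for 50% inhibition of growth.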 Calls of active or inactive are those of the source. Cut-off read from the data, not from the text of the source: active = GI50 up to about 1.1 µM and inactive = higher.

Key:
Test in all cases: NCI tumour cell line growth inhibition, 48 h
[1] = system: MOLT-4
[2] = system: K562
[3] = system: UACC-257
[4] = system: UO-31
[5] = system: SK-OV-3
[6] = system: SF-268
[7] = system: A549
[8] = system: SF-539
[9] = system: SR
[10] = system: COLO 205
[11] = system: 786-0
[12] = system: DMS-273
[13] = system: SN12C
[14] = system: SK-MEL-28
[15] = system: LOX IMVI
[16] = system: CAKI-1
[17] = system: BT-549
[18] = system: MDA-MB-231
[19] = system: DU-145

SMILES | GI50 [1] | GI50 [2] | GI50 [3] | GI50 [4] | GI50 [5] | GI50 [6] | GI50 [7] | GI50 [8] | GI50 [9] | GI50 [10] | GI50 [11] | GI50 [12] | GI50 [13] | GI50 [14] | GI50 [15] | GI50 [16] | GI50 [17] | GI50 [18] | GI50 [19]
CC12CCC(=O)N1c1ccc([N+](=O)[O-])cc1N2 (stereo not given) | 83.4 µM (inactive) | > 100 µM (inactive) | > 100 µM (inactive) | > 100 µM (inactive) | > 100 µM (inactive) | > 100 µM (inactive) | > 100 µM (inactive) | > 100 µM (inactive) | 71 µM (inactive) | > 100 µM (inactive) | > 100 µM (inactive) | > 100 µM (inactive) | > 100 µM (inactive) | > 100 µM (inactive) | > 100 µM (inactive) | – | – | – | –
CSc1ccc2c(cc1=O)C(NC(=O)c1ccc(OC(C)=O)cc1)CCc1cc(O)c(O)c(O)c1-2 (stereo not given) | 5.11 µM (inactive) | 1.95 µM (inactive) | 19.5 µM (inactive) | 35.6 µM (inactive) | 38.4 µM (inactive) | 42.1 µM (inactive) | 33.9 µM (inactive) | 19.1 µM (inactive) | 7.94 µM (inactive) | 16.9 µM (inactive) | 31 µM (inactive) | 22.5 µM (inactive) | 16.3 µM (inactive) | 61.7 µM (inactive) | – | – | – | – | –
N#CC(C#N)=c1c2nsnc2c(=C(C#N)C#N)c2nsnc12 | – | – | 1.94 µM (inactive) | 1.84 µM (inactive) | – | 2.3 µM (inactive) | 3.6 µM (inactive) | 1.93 µM (inactive) | – | 2.52 µM (inactive) | 5.16 µM (inactive) | 1.57 µM (inactive) | – | 1.87 µM (inactive) | 1.58 µM (inactive) | 1.86 µM (inactive) | – | – | –
O=C(N/N=C\c1ccc([N+](=O)[O-])cc1)Nc1cccc2ccccc12 | > 100 µM (inactive) | > 100 µM (inactive) | > 79.3 µM (inactive) | 24.5 µM (inactive) | 4.5 µM (inactive) | 4.88 µM (inactive) | > 49.9 µM (inactive) | 10.7 µM (inactive) | > 55.1 µM (inactive) | > 100 µM (inactive) | 7.1 µM (inactive) | – | 48.9 µM (inactive) | > 100 µM (inactive) | 22.5 µM (inactive) | 15.3 µM (inactive) | 4.25 µM (inactive) | 14.1 µM (inactive) | 24.9 µM (inactive)
COc1ccc(N2C(=O)C3c4[nH]c5ccccc5c4C4CCC(c5ccccc5)CC4C3C2=O)cc1 (stereo not given) | 26.6 µM (inactive) | 11.2 µM (inactive) | 48.4 µM (inactive) | 46.8 µM (inactive) | 20.2 µM (inactive) | 10.4 µM (inactive) | 26.5 µM (inactive) | 1.48 µM (inactive) | 0.424 µM (active) | > 40.4 µM (inactive) | 7.76 µM (inactive) | – | 28.5 µM (inactive) | > 54.6 µM (inactive) | > 32.5 µM (inactive) | 17.4 µM (inactive) | 31.4 µM (inactive) | 10.9 µM (inactive) | 57.3 µM (inactive)
CCOC(=O)NC(Nc1ccc(F)cc1)(C(=O)OCC)C(F)(F)F (stereo not given) | 6.71 µM (inactive) | < 0.0307 µM (active) | 3.47 µM (inactive) | 8.59 µM (inactive) | > 100 µM (inactive) | > 100 µM (inactive) | 10.5 µM (inactive) | > 100 µM (inactive) | > 100 µM (inactive) | > 26 µM (inactive) | > 100 µM (inactive) | – | > 100 µM (inactive) | > 88.5 µM (inactive) | 0.153 µM (active) | > 100 µM (inactive) | > 100 µM (inactive) | > 100 µM (inactive) | > 21.5 µM (inactive)
CCOc1nc2sc3c(c2c(=O)n1CCSSCCn1c(OCC)nc2sc4c(c2c1=O)CCCC4)CCCC3 | > 100 µM (inactive) | > 100 µM (inactive) | > 100 µM (inactive) | > 100 µM (inactive) | > 100 µM (inactive) | > 100 µM (inactive) | > 100 µM (inactive) | > 100 µM (inactive) | > 100 µM (inactive) | > 100 µM (inactive) | > 100 µM (inactive) | – | > 100 µM (inactive) | > 100 µM (inactive) | > 100 µM (inactive) | > 100 µM (inactive) | > 100 µM (inactive) | > 100 µM (inactive) | > 100 µM (inactive)
CCOC(=O)CNC(=O)C(CSC(=O)N(O)c1ccc(Br)cc1)NC(=O)CCC(N)C(=O)OCC (stereo not given) | 2.96 µM (inactive) | 41.9 µM (inactive) | > 50 µM (inactive) | > 50 µM (inactive) | > 50 µM (inactive) | > 50 µM (inactive) | > 50 µM (inactive) | > 50 µM (inactive) | > 50 µM (inactive) | > 50 µM (inactive) | > 50 µM (inactive) | – | > 50 µM (inactive) | > 50 µM (inactive) | 40.1 µM (inactive) | > 50 µM (inactive) | > 50 µM (inactive) | > 50 µM (inactive) | > 50 µM (inactive)
